Broadly, the IC50 is the point on the concentration scale where inhibition reaches its midpoint.

The target of assay [1] is DCN1 (DCUND1) protein PONY domain (Homo sapiens (Human), UniProt Q96GG9). The experiment in a line: TR-FRET assay, DCN1 binding with FAM-labeled probe. Summed up:
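Biotinylated DCN1 PONY domain, labeled with streptavidin-Tb, was competed against a FAM-labeled non-covalent DCN1 inhibitor probe in buffer with TritonX and 200 mM NaCl. Conditions were 5 nM DCN1 with 20 nM FAM-probe, or 0.31 nM DCN1 with 100 nM FAM-plus 800 nM unlabeled probe. The TR-FRET ratio was read at 1, 5 and 24 h (0.1% DMSO).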
Background: In TR-FRET formats the signal depends on donor and acceptor labels being close together.

The test system of assay [2] is Cullin-3 (CUL3) neddylation. The experiment in a line: AlphaLISA assay for Cullin-3 (CUL3) neddylation in TF 1 cells. Type of assay: cell-based. The following applies: 3 hours treatment. As to the method:
An AiphaLISA assay was performed to evaluate the ability of the compounds to suppress neddylation, which is downstream from DCN-1 and DCN-2. A stronger inhibition of DCN-1 and DCN-2 is expected to result in a suppression of neddylation as shown by a lower AlphaLISA signal. The AlphaLISA assay for detecting Cullin-3 (CUL3) neddylation was performed according to manufacturer instructions (Revvity, Hopkinton, MA). Briefly, TF 1 cells (ATCC) were plated in Iscove's Modified Dulbecco's Medium (IMIDM) without supplements in 384-well plates. These cells were treated with […] for 3 hours before lysing them with AlphaLISA lysis buffer, 5× (Revvity). To detect the level of CUL3 neddylation, biotinylated anti-NEDD8 antibody, was added followed by AlphaLISA Acceptor beads conjugated with anti-CUL3 antibody. After overnight incubation, Streptavidin-coated Alpha Donor beads were added and incubated for 1 hour. The AlphaLISA signal was then read on a VICTOR Nivo Multimode Microplate Reader (Revvity, Hopkinton, MA). The positive control was 1 μM DI-1548, which is reported to reduce CUL3 neddylation, also referred to as C-1 in Example 41 (Zhou et al. Nature Comm. 2021). The neddylation signal was normalized such that the percent inhibition is 0% for vehicle control and 100% for positive control. The dose-response curves were fitted with the Hill equation to obtain IC50 values (Graphpad Prism).
A general note: Alpha assays give light when donor and acceptor beads are brought close together.

[3] abbreviates: 24 hr after treatment with compound, read-out: TR FRET IC50 24 hr.
[4] abbreviates: TR FRET IC50 1 hr (nM), 1 hr after treatment with compound.
The mark [5] stands for this setting: read-out: TR FRET IC50 1 hr, 1 hr after treatment with compound.

Each structure is given as a SMILES string. Read-outs that look alike come from different tables or passages of the source.

Chain of DCN1 (DCUND1) protein PONY domain (Q96GG9 60-248): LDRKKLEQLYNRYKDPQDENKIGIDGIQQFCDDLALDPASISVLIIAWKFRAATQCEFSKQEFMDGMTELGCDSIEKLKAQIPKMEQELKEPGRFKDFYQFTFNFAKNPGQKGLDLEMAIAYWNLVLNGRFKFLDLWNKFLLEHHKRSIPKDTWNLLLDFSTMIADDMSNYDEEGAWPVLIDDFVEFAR

For the molecule `CCN1C(=O)[C@@H](NC(=O)N2CCC[C@H](C(F)(F)F)C2)[C@@H](c2ccc(F)cc2)c2c(C(=O)N3CCC[C@H]3C#N)nn(-c3ccccc3)c21` (single isomer, unassigned) [Compound I-501], the half-inhibitory concentration (IC50) was 200 to 1000 nM in assay [1] (setting [3]); 1000 to 3000 nM in assay [1] (setting [4]); more than 1000 nM in assay [2] (Homo sapiens, TF-1, 3 h).
`CCN1C(=O)[C@@H](NC(=O)c2cccc(C(F)(F)F)c2)[C@@H](C2CC2)c2c(C(=O)N3CCNC[C@@H]3C#N)nn(-c3ccccc3)c21` (single isomer, unassigned) [Compound I-518]: the half-maximal inhibitory concentration (IC50) in assay [1] (setting [3]) was not above 200 nM; in assay [1] (setting [4]), 200 to 1000 nM; in assay [2] (Homo sapiens, TF-1, 3 h), not above 100 nM.
In the case of `CCN1C(=O)[C@H](NC(=O)c2cccc(C(F)(F)F)c2)[C@H](c2ccc(F)cc2)c2c(C(=O)N3[C@H](C#N)C[C@H]4C[C@H]43)nn([C@@H]3CCOC3)c21` (single isomer, unassigned) [Compound I-562], the IC50 in assay [1] (setting [3]) was 1000 to 3000 nM; in assay [1] (setting [4]), 1000 to 3000 nM; in assay [2], more than 1000 nM.
For the molecule `CCN1C(=O)[C@@H](NC(=O)c2cccc(C(F)(F)F)c2)[C@@H](c2ccc(F)cc2)c2c(C(=O)N3[C@H](C#N)C[C@H]4C[C@H]43)nn([C@@H]3CCOC3)c21` (single isomer, unassigned) [Compound I-583], the IC50 in assay [1] (setting [3]) is 1000 to 3000 nM; in assay [1] (setting [4]) it was 1000 to 3000 nM; in assay [2], more than 1000 nM.
For `CCN1C(=O)[C@@H](NC(=O)c2nccc(C(F)(F)F)n2)[C@H](c2ccc(F)cc2)c2c(CC(=O)N[C@H](C)C#N)nn(-c3ccccc3)c21` (single isomer, unassigned) [Compound I-607], the half-maximal inhibitory concentration (IC50) was 1000 to 3000 nM in assay [1] (setting [3]); 200 to 1000 nM in assay [1] (setting [4]); more than 1000 nM in assay [2] (Homo sapiens, TF-1, 3 h).
In the case of `CCN1C(=O)[C@H](NC(=O)c2cccc(C(F)(F)F)c2)[C@H](c2ccc(F)cc2)c2c(C(=O)N3[C@H](C#N)C[C@H]4C[C@H]43)nn([C@@H]3CCOC3)c21` (single isomer, unassigned) [Compound I-704], the half-maximal inhibitory concentration (IC50) was not above 200 nM in assay [1] (setting [3]), 1000 to 3000 nM in assay [1] (setting [5]) and 100 to 1000 nM in assay [2].
For the molecule `CCN1C(=O)[C@H](NC(=O)c2cccc(C(F)(F)F)c2)[C@H](c2ccc(F)cc2)c2c(C(=O)N(CC#N)CC(=O)OC)nn(-c3ccccc3)c21` (stereo in doubt) [Compound I-406], the IC50 is not above 200 nM in assay [1] (setting [3]); 200 to 1000 nM in assay [1] (setting [4]); 100 to 1000 nM in assay [2] (Homo sapiens, TF-1, 3 h).
For `CCN1C(=O)C(NC(=O)c2cccc(C(F)(F)F)c2)[C@@H](C2CC2)c2c(C(=O)N3CC(NC)CC3C#N)nn(C3CCOCC3)c21` (stereo in doubt) [Compound I-420, N-[(4S,5S)-3-[(2S,4R*)-2-cyano-4-(methylamino)pyrrolidine-1-carbonyl]-4-cyclopropyl-7-ethyl-1-(oxan-4-yl)-6-oxo-4H,5H-pyrazolo[3,4-b]pyridin-5-yl]-3-(trifluoromethyl)benzamide], the IC50 was 1000 to 3000 nM in assay [1] (setting [3]); 1000 to 3000 nM in assay [1] (setting [4]); more than 1000 nM in assay [2] (Homo sapiens, TF-1, 3 h).
As to `CCN1C(=O)[C@H](NC(=O)c2cccc(C(F)(F)F)c2)[C@H](c2ccc(F)cc2)c2c(C(=O)N(CC#N)CCC(=O)OC)nn(-c3ccccc3)c21` (stereo in doubt) [Compound I-461], the half-maximal inhibitory concentration (IC50) in assay [1] (setting [3]) was 1000 to 3000 nM; in assay [1] (setting [4]), 1000 to 3000 nM; in assay [2] (Homo sapiens, TF-1, 3 h), more than 1000 nM.
As to `C=C(CN1CCC1)C(=O)NCc1nn(-c2ccccc2)c2c1[C@H](C1CC1)[C@H](NC(=O)c1cccc(C(F)(F)F)c1)C(=O)N2CC` (stereo in doubt) [Compound I-462], the half-inhibitory concentration (IC50) in assay [1] (setting [3]) was not above 200 nM; in assay [1] (setting [5]), not above 200 nM; in assay [2] (Homo sapiens, TF-1, 3 h) it was not above 100 nM.
As for `CCN(CC#N)C(=O)c1nn(-c2ccccc2)c2c1[C@@H](c1ccc(F)cc1)[C@@H](NC(=O)c1cccc(C(F)(F)F)c1)C(=O)N2CC` (stereo in doubt) [Compound I-531], the half-maximal inhibitory concentration (IC50) in assay [1] (setting [3]) was not above 200 nM; in assay [1] (setting [4]) it was 1000 to 3000 nM; in assay [2] (Homo sapiens, TF-1, 3 h), 100 to 1000 nM.
Taken in the same sequence, the figures for `CCN1C(=O)[C@@H](NC(=O)c2cccc(C(F)(F)F)c2)[C@@H](c2ccc(F)cc2)c2c(C(=O)N3CCC[C@H]3C#N)nn(-c3cccc(OCCCN4CC5(COC5)C4)c3)c21` (stereo in doubt) [Compound I-615] were 200 to 1000 nM, 1000 to 3000 nM and more than 1000 nM.
For `C=C(CN1CCC1)C(=O)NCc1nn(-c2ccccc2)c2c1[C@@H](C1CC1)[C@@H](NC(=O)c1cccc(C(F)(F)F)c1)C(=O)N2CC` (stereo in doubt) [Compound I-636], in that order: 1000 to 3000 nM, 1000 to 3000 nM and more than 1000 nM.
Regarding `CCN1C(=O)[C@H](NC(=O)c2cccc(C(F)(F)F)c2)[C@H](c2ccc(F)cc2)c2c(C(=O)N(CC#N)CCO)nn(-c3ccccc3)c21` (stereo in doubt) [Compound I-639], the half-maximal inhibitory concentration (IC50) in assay [1] (setting [3]) was 1000 to 3000 nM; in assay [1] (setting [4]) it was 1000 to 3000 nM; in assay [2] (Homo sapiens, TF-1, 3 h) it was more than 1000 nM.
For `CCN1C(=O)[C@H](NC(=O)c2cccc(C(F)(F)F)c2)[C@H](c2ccc(F)cc2)c2c(C(=O)N(CC#N)C3CC3)nn(-c3ccccc3)c21` (stereo in doubt) [Compound I-674], the concentration for half-maximal inhibition (IC50) in assay [1] (setting [3]) is 1000 to 3000 nM; in assay [1] (setting [4]), 1000 to 3000 nM; in assay [2] (Homo sapiens, TF-1, 3 h), more than 1000 nM.
As for `C=C(CN1CCC(C)(O)C1)C(=O)NCc1nn(-c2ccccc2)c2c1[C@H](c1ccc(F)cc1)[C@H](NC(=O)c1cccc(C(F)(F)F)c1)C(=O)N2CC` (stereo partly drawn) [Compound I-25], the concentration for half-maximal inhibition (IC50) is not above 200 nM in assay [1] (setting [3]); not above 200 nM in assay [1] (setting [5]); not above 100 nM in assay [2] (Homo sapiens, TF-1, 3 h).
`C=C(CN1CC2CCC(C1)O2)C(=O)NCc1nn(-c2ccccc2)c2c1[C@H](c1ccc(F)cc1)[C@H](NC(=O)c1cccc(C(F)(F)F)c1)C(=O)N2CC` [Compound I-50]: the IC50 in assay [1] (setting [3]) was not above 200 nM; in assay [1] (setting [5]), not above 200 nM; in assay [2] (Homo sapiens, TF-1, 3 h), not above 100 nM.
Take `C=C(CN1CC2CC(C1)O2)C(=O)NCc1nn(-c2ccccc2)c2c1[C@H](c1ccc(F)cc1)[C@H](NC(=O)c1cccc(C(F)(F)F)c1)C(=O)N2CC` [Compound I-56]: the concentration for half-maximal inhibition (IC50) in assay [1] (setting [3]) is not above 200 nM; in assay [1] (setting [5]), not above 200 nM; in assay [2] (Homo sapiens, TF-1, 3 h) it was not above 100 nM.
Take `CCN1C(=O)[C@H](NC(=O)c2cccc(C(F)(F)F)c2)[C@H](c2ccc(F)cc2)c2c(C(=O)N[C@@H](C)C#N)nn(-c3ccccc3)c21` [Compound I-255, (4R,5R)—N—((S)-1-cyanoethyl)-7-ethyl-4-(4-fluorophenyl)-6-oxo-1-phenyl-5-(3-(trifluoromethyl)benzamido)-4,5,6,7-tetrahydro-1H-pyrazolo[3,4-b]pyridine-3-carboxamide]: the IC50 in assay [1] (setting [3]) is 1000 to 3000 nM; in assay [1] (setting [4]), 1000 to 3000 nM; in assay [2] (Homo sapiens, TF-1, 3 h), more than 1000 nM.
Consider `CCN1C(=O)[C@@H](NC(=O)c2cccc(C(F)(F)F)c2)[C@@H](c2ccc(F)cc2)c2c(CNC/C=C/C(=O)N3CCCC3)nn(-c3ccccc3)c21` [Compound I-400], for which the half-inhibitory concentration (IC50) in assay [1] (setting [3]) was not above 200 nM; in assay [1] (setting [5]) it was not above 200 nM; in assay [2] (Homo sapiens, TF-1, 3 h), 100 to 1000 nM.
For the molecule `CCN1C(=O)[C@H](NC(=O)c2cccc(C(F)(F)F)c2)[C@H](c2ccc(F)cc2)c2c(C(=O)N3CCC[C@H]3C#N)nn(C3CCOCC3)c21` [Compound I-401], the IC50 in assay [1] (setting [3]) was 1000 to 3000 nM; in assay [1] (setting [4]), 1000 to 3000 nM; in assay [2] (Homo sapiens, TF-1, 3 h) it was more than 1000 nM.
Take `CCN1C(=O)[C@@H](NC(=O)c2nccc(C(F)(F)F)n2)[C@H](c2ccc(F)cc2)c2c(CN(C)C(=O)CC#N)nn(-c3ccccc3)c21` [Compound I-402, N-((4R,5S)-3-((2-cyano-N-methylacetamido)methyl)-7-ethyl-4-(4-fluorophenyl)-6-oxo-1-phenyl-4,5,6,7-tetrahydro-1H-pyrazolo[3,4-b]pyridin-5-yl)-4-(trifluoromethyl)pyrimidine-2-carboxamide]: the 50% inhibitory concentration (IC50) in assay [1] (setting [3]) lay within 1000 to 3000 nM; in assay [1] (setting [4]), 1000 to 3000 nM; in assay [2] (Homo sapiens, TF-1, 3 h), 100 to 1000 nM.
In the case of `CCN1C(=O)[C@@H](NC(=O)c2cccc(C(F)(F)F)c2)[C@H](c2ccc(F)cc2)c2c(CN(C)C(=O)CC#N)nn(-c3ccccc3)c21` [Compound I-403], the 50% inhibitory concentration (IC50) in assay [1] (setting [3]) is 200 to 1000 nM; in assay [1] (setting [4]), 200 to 1000 nM; in assay [2] (Homo sapiens, TF-1, 3 h), 100 to 1000 nM.
In the case of `CCN1C(=O)[C@H](NC(=O)c2cccc(C(F)(F)F)c2)[C@H](C2CC2)c2c(C(=O)N(CC#N)C3CC3)nn(C3CCOCC3)c21` [Compound I-405], the IC50 in assay [1] (setting [3]) is 1000 to 3000 nM; in assay [1] (setting [4]) it was 1000 to 3000 nM; in assay [2] (Homo sapiens, TF-1, 3 h), more than 1000 nM.
For `CCN1C(=O)[C@@H](NC(=O)c2nccc(C(F)(F)F)n2)[C@@H](c2ccc(F)cc2)c2c(CNC(=O)/C=C/C(=O)OC(C)(C)C)nn(-c3ccccc3)c21` [Compound I-408], the half-inhibitory concentration (IC50) is not above 200 nM in assay [1] (setting [3]); not above 200 nM in assay [1] (setting [5]); 100 to 1000 nM in assay [2] (Homo sapiens, TF-1, 3 h).

For the origin of these results see patent US20250163057A1, “DCN-1 MODULATING COMPOUNDS AND METHODS OF USE THEREOF” (Cellarity, Inc., priority 2023, published 2025).
